Measurements reported in patent publication US6056965A, “2-mercapto-imidazole derivatives substituted in position 4 (or 5) as antioxidizing agents, method of preparation and applications in the pharmaceutical, cosmetic or food industries” (Oxis Isle of Man, Limited, priority 1993, dated 2000).

Assays:
[1] = system: erythrocytic glutathione peroxidase; experiment: Prevention of the inactivation of glutathione peroxidase by hypochlorous acid; format: biochemical, bovine; conditions: 25 μM test molecule + 10 μM hypochlorous acid, 2 minutes at 37° C.; 100% = no hypochlorous acid and no test molecule
Protocol: In a 50 mM potassium phosphate buffer of pH 7.0 containing 0.1 mM DTPA, a quantity of erythrocytic glutathione peroxidase of bovine origin is incubated for 2 minutes at 37° C., at a final concentration of 1.5 U/ml, in the presence of 10 μM hypochlorous acid and in the presence or absence of a molecule described in the present invention (at 25 μM).
After incubation for 2 minutes, 100 μl of this reaction medium are then added to 1.5 ml of 50 mM Tris buffer of pH 7.6 (at 37° C.) containing 0.1 mM DTPA, 0.165 mM β-NADPH, 2.2 mM reduced glutathione and 1.1 U/ml of glutathione disulfide reductase.
Then, after the addition of 50 μl of 6.6 mM t-butyl hydroperoxide, the glutathione peroxidase activity is determined at 37° C. by measuring the decrease in absorbance at 340 nm for 2 minutes.
They are expressed as a percentage of the glutathione peroxidase activity determined under the same experimental conditions in the absence of hypochlorous acid and the test molecule.

[2] = system: double-stranded DNA; experiment: Prevention of the degradation of DNA by the system Fe(II)-citrate/H2O2/ascorbate; format: biochemical, phage lambda; conditions: 25 μM test molecule (table) + 20 μM Fe(2+)-citrate, 200 μM ascorbate, 200 μM H2O2, 1 hour at 37° C.
Protocol: After this incubation for one hour, 220 U/ml of catalase are then added to the reaction medium and the integrity of the DNA is measured by spectrofluorimetry after the addition of 10 μl of a 5 mM solution of ethidium bromide to the reaction medium (excitation wavelength: 510 nm; emission wavelength: 590 nm).
The effect of the test molecule is measured by determining the percentage of intact DNA, the value of 100% being determined under the same experimental conditions in the absence of the system Fe(II)-citrate/H2 O2 /ascorbate and the test molecule.

[3] = system: glucose-6-phosphate dehydrogenase; experiment: Prevention of the inactivation of glucose-6-phosphate dehydrogenase by the system Cu(II)/ascorbate/O2; format: biochemical, Leuconostoc mesenteroides; conditions: 25 μM test molecule + 4.5 μM Cu(2+) + 360 μM ascorbate, 5 minutes at 37° C.; 100% = no system and no test molecule
Protocol: In a 50 mM potassium phosphate buffer of pH 7.0, a quantity of glucose-6-phosphate dehydrogenase (purified from Leuconostoc mesenteroides) is incubated for 5 minutes at 37° C., at a final concentration of 1.2 U/ml, in the presence of 4.5 μM copper sulfate and 360 μM ascorbate and in the presence or absence of a molecule described in the present invention (at 25 μM). After incubation for 5 minutes, 20 μl of this reaction medium are then added to 980 μl of 50 mM Tris buffer of pH 7.5 (at 37° C.) containing 0.380 mM β-NADP^+, 3.3 mM glucose-6-phosphate and 6.3 mM magnesium chloride. The glucose-6-phosphate dehydrogenase activity is then determined at 37° C. by measuring, the increase in absorbance at 340 nm for 7 minutes. They are expressed as a percentage of the glucose-6-phosphate dehydrogenase activity determined under the same experimental conditions in the absence of the system Cu(II)/ascorbate/O2 and the test molecule.

[4] = system: isolated rat heart; experiment: Recovery of the developed pressure of a heart subjected to ischemia-reperfusion (Example 18); conditions: 10 μM BXT 52051 or 2 μM BXT 52052; 12 minutes prior to ischemia and during reperfusion; FIG. 4
Protocol: In the same experimental model as that described in Example 17, the study of BXT 52051 and BXT 52052 is carried out by perfusing the heart with the perfusion medium containing 10 μM BXT 52051 or 2 μM BXT 52052 for 12 minutes prior to the period of ischemia, as well as during the reperfusion. The degradation of the cardiac function is evaluated from the measurement of hemodynamic parameters (systolic and telediastolic ventricular pressures) by determining over time the percentage recovery of the developed pressure (difference between systolic and telediastolic pressure) during the reperfusion, compared to that recorded just before the period of ischemia (stabilized developed pressure).

[5] = quenching excited states of photosensitizers such as rose bengal; cited from earlier work
[6] = system: isolated rat heart; conditions: 100 μmolar; after 15 min of ischemia; cited from earlier work
[7] = system: isolated and perfused rat heart; experiment: Inhibition of cardiac necrosis induced by ischemia-reperfusion, modified perfusion solution (Example 17); conditions: 20 μM BXT 52053, 600 μM albumin (BSA) or 100 μM L-ergothioneine; 12 minutes before ischemia and first 30 minutes of reperfusion; FIG. 3
Protocol: In the same experimental model as that described in Example 16, the composition of the perfusion solution was modified such that it contains 2.5 mM CaCl2 and 2.4 mM MgCl2) (all else being moreover equal). The effect of BXT 52053 is then compared to that of albumin and L-ergothioneine.
This study is carried out by perfusing the heart with the perfusion solution containing 20 μM BXT 52053, or 600 μM albumin (BSA), or 100 μM L-ergothioneine, during the 12 minutes preceding the period of ischemia, then during the first 30 minutes of post-ischemic reperfusion.
The degradation of the myocardial tissue due to the ischemia and/or reperfusion is evaluated by determining the total quantity of creatine phosphokinase (CPK) released into the perfusate during the period of reperfusion. The results are expressed in milliunits of enzyme activity per milligram of heart and per minute.

[8] = physiological conditions (concentrations and pH); cited from earlier work
[9] = physiological conditions (concentrations and pH); cited from earlier work; remark: listed apart in the source
[10] = in the presence of metal salts (Fe^++); cited from earlier work
[11] = pulsed radiolysis or Fenton reaction; cited from earlier work
[12] = system: oxyhemoglobin; conditions: micromolar concentrations; sodium nitrite; in vitro; cited from earlier work
[13] = system: ferryl forms of the hemoproteins; conditions: physiological pH; produced in the presence of H2O2; cited from earlier work
[14] = system: isolated and perfused rat heart; experiment: Inhibition of cardiac necrosis induced by ischemia-reperfusion, perfused isolated heart (Example 16); conditions: 2 μM in perfusion medium 12 minutes prior to ischemia and during reperfusion
Protocol: Male Sprague-Dawley rats weighing between 250 and 350 grams are injected intraperitoneally with a solution of sodium heparinate (40 units/100 g). The rats are anesthetized with ether 30 minutes later. The heart is then quickly removed and perfused by Langendorff's method (see 0. LANGENDORFF: Pflugers Arch. Physiol. Mensch. Tiere; (1895); 61; page 291) with electrical stimulation at a frequency of 300/min. The perfusion solution, equilibrated with 95% of oxygen and 5% of carbon dioxide, consists of a modified Krebs-Henseleit buffer (pH 7.4) of the following composition: NaCl118 mM, KCl 4.7 mM, MgSO4 1.2 mM, CaCl2 1 mM, KH2 PO4 1.2 mM, NaHCO3 25 mM and glucose 11 mM. The whole set-up is thermostatically controlled at 37° C.
The functional state of the heart is monitored by measurement of the following hemodynamic parameters: heart rate, systolic and telediastolic ventricular pressures (the difference between these expressing the developed pressure) and minimal and maximal slopes of the pressure variations as a function of time. […]
In addition, the alteration of the myocardial tissue is evaluated by determining the concentration, in the perfusate, of two cytosolic enzymes released into the perfusion medium, namely creatine phosphokinase (CPK) and lactate dehydrogenase (LDH). […]

| Compound | % glutathione peroxidase activity [1] | % intact DNA [2] | % glucose-6-phosphate dehydrogenase activity [3] | further results |
| --- | --- | --- | --- | --- |
| NC(=O)CCc1c[nH]c(=S)[nH]1 [BXT 52029, 3-(2'-mercaptoimidazol-4'-yl)propanamide] | 93.2% | 78.0% | 92.3% | – |
| NCCc1c[nH]c(=S)[nH]1 [BXT 52022, 2-(2'-mercaptoimidazol-4'-yl)ethylamine] | 94.4% | 80.2% | 94.4% | – |
| CN(C)[C@@H](Cc1c[nH]c(=S)[nH]1)C(=O)O [BXT 52040, 2'-mercapto-Nα,Nα-dimethyl-L-(+)-histidine] | 99.1% | 75.3% | 104.6% | – |
| C[N+](C)(C)CC(CC(=O)[O-])OC(=O)CCc1c[nH]c(S)n1 (stereo not drawn) [BXT 52052, carnitine 3-(2'-mercaptoimidazol-4'-yl)propanoate] | – | – | – | recovery of the ventricular developed pressure during reperfusion [4]: recovered much more rapidly and reaches a higher value |
| C[N+](C)(C)[C@@H](Cc1c[nH]c(=S)[nH]1)C(=O)[O-] [L-ergothioneine, L-(+)-Ergothioneine] | – | – | – | photoproduction of singlet oxygen [5]: inhibits the photoproduction of singlet oxygen; extent of cell necrosis (lactate dehydrogenase activity of the effluent) [6]: limits the extent of cell necrosis; total quantity of CPK released into the perfusate during 30 minutes of reperfusion [7]: no significant effect; reaction with superoxide anion [8]: reacts neither; reaction with hydrogen peroxide [9]: reacts neither; stimulation of peroxidation of polyunsaturated fatty acids [10]: does not stimulate the peroxidation of polyunsaturated fatty acids; reaction with OH radicals [11]: kinetics close to the maximum rate of diffusion; inhibition of methemoglobin formation [12]: effectively inhibit the formation of methemoglobin; reduction of ferryl forms of hemoproteins [13]: reduces the ferryl forms of the hemoproteins |
| CCOC(=O)CCc1c[nH]c(=S)[nH]1 [BXT 52021, ethyl 3-(2'-mercaptoimidazol-4'-yl)propanoate] | 94.7% | 78.0% | 93.7% | systolic pressure of heart subjected to ischemia-reperfusion [14]: maintained |
| albumin: albumin (BSA), comparison agent in the perfusion solution | – | – | – | total quantity of CPK released into the perfusate during 30 minutes of reperfusion [7]: no significant effect |
| O=C(O)CCc1c[nH]c(=S)[nH]1 [BXT 52020, 3-(2'-mercaptoimidazol-4'-yl)propanoic acid] | 94.8% | 76.2% | 92.3% | – |
